{
  "source": "patent US20250249025A1",
  "about": "“DRUG DELIVERY CARRIER UTILIZING PROPERTY OF D-ALLOSE BEING UPTAKEN BY CANCER CELL, DRUG DELIVERY METHOD, AND COMPOSITION FOR TREATING RENAL CELL CARCINOMA” (NATIONAL UNIVERSITY CORPORATION KAGAWA UNIVERSITY, priority 2019, published 2025)",
  "key": {"[1]": {"test_system": "human carcinoma cell lines", "assay_type": "cell-based", "settings": "48 h, 10 mM", "experimental": "An uptake amount of a rare sugar, which had been added to a medium, into carcinoma cells was analyzed using the cell lines of three types of cancers. As the rare sugar, four kinds, that is, D-allose, D-allulose (D-psicose), L-allulose (L-psicose), and allitol were used, while D-glucose and fructose were used as a monosaccharide which was not a rare sugar.\nCells of each of the cell lines were cultured in RPMI-1640 media and during culturing, six sugars were each added to the resulting media and cultured. After culturing, an amount of each sugar taken up into the cells was analyzed. The medium to which no sugar was added during culturing was used as a control.\nUsed were human bladder carcinoma cell lines (RT112, 253), and J82), human prostatic carcinoma cell lines (LNCa, Du145, and PC-3), and human renal cell carcinoma cell lines (ACHN, Caki-I, and Caki-II). […]\nAfter culturing for 48 hours, the attached human carcinoma cells were mechanically separated and collected in a Spitz tube together with the culture solution and floating cells. […] From the area thus obtained, the sugar content in the cells was determined using a calibration curve. With respect to the ketose, two peaks were found after labeling with ABEE so that the sugar content in the cells was determined from the calibration curves of both peaks."}, "Caki-I tumor": {"test_system": "Caki-I tumor", "experiment": "D-allose concentration in tumor after intraperitoneal injection, Caki-I xenograft mouse model", "assay_type": "in vivo", "settings": "Caki-I xenograft mice, 400 mg/kg intraperitoneal", "experimental": "(§1) The experiment of the present example used two human renal cell carcinoma cell lines (Caki-I and ACHN). Each cell was cultured under the wet environment of 37° C. and 5% CO2 by using a RPMI-1640 culture solution (2000 mg D-glucose/L) containing a 10% fetal calf serum, a HEPES buffer, and penicillin-streptomycin.\n(§2) With respect to a renal cell carcinoma xenograft mouse model, a 1.0×10^5 cells/ml of a cell suspension was obtained by adjusting the cultured cells with a MEM culture solution and then 0.1 ml of the resulting suspension was injected into the femoral subcutaneous tissue of Female athymic nude mice (BALB/c-nu/nu, 6-week-old). After checking that the tumor volume was 200 mm^3 or more one week after the injection, the mice were provided for the experiment thereafter.\nA 400 mg/kg/0.4 mL solution of rare sugar D-allose was prepared using physiological saline and was intraperitoneally injected into the xenograft mouse models of two human renal cell carcinoma cell lines (Caki-I and ACHN) through a 27 G needle. A tumor was enucleated from the mouse before […] administration and 1 hour, 2 hours, and 4 hours after the administration. […] A monosaccharide in the supernatant thus obtained was labeled with ABEE (4-aminobenzoic acid ethyl ester) and the quantitative analysis of D-allose was performed by HPLC (high performance liquid chromatography). […]"}, "[2]": {"test_system": "xenograft mouse model made using Caki-I", "experiment": "Change of tumor volume by intraperitoneal D-allose injection, Caki-I xenograft mouse model", "assay_type": "in vivo, mice", "experimental": "as §1, §2\n(§3) The day when the tumor size of the renal cell carcinoma xenograft mouse models became 200 mm^3 or more was called day 0 and the intraperitoneal injection of a D-allose-containing solution was started from day 1. The solution injected is 0.4 mL of physiological saline or a solution obtained by dissolving 100 mg/kg or 400 mg/kg of D-allose in 0.4 mL physiological saline. The resulting solution was intraperitoneally injected into three groups of mice (Control, 100 mg/kg of D-allose, and 400 mg/kg of D-allose) once a day for 5 weeks in total. The body weight of the mice and the long and short diameters of the tumor were measured over time twice a week. It is to be noted that the tumor volume was obtained as a product of long diameter×short diameter×short diameter of the tumor×0.5. On day 35 after the intraperitoneal injection was started, the tumor as well as the liver and kidney were excised from the mice and provided for the experiment performed thereafter."}, "[3]": {"test_system": "xenograft mouse model made using ACHN", "experiment": "Change of tumor volume by intraperitoneal D-allose injection, ACHN xenograft mouse model", "assay_type": "in vivo, mice", "settings": "400 mg/kg intraperitoneal once a day, on and after day 13, Mann-Whitney U test", "experimental": "as §1, §2\nThe day when the tumor size of the renal cell carcinoma xenograft mouse models became 200 mm^3 or more was called day 0 and the intraperitoneal injection of a D-allose-containing solution was started from day 1. The solution injected is 0.4 mL of physiological saline or a solution obtained by dissolving 100 mg/kg or 400 mg/kg of D-allose in 0.4 mL physiological saline. […] The body weight of the mice and the long and short diameters of the tumor were measured over time twice a week. […]"}, "ACHN tumor tissue": {"test_system": "ACHN tumor tissue", "experiment": "Tumor tissue histology (necrosis area, nuclear fission), ACHN xenograft mouse model", "assay_type": "in vivo, mice", "settings": "day 35", "experimental": "as §1, §2, §3\nThe tissue of the excised tumor, kidney, and liver was fixed with a 4% paraformaldehyde phosphate buffer, embedded with paraffin, and sliced into a 4-μm thick section. The resulting sliced section was stained with hematoxylin and eosin and evaluated by a medical specialist in pathology. The influence of D-allose on the tumor tissue was evaluated by a necrosis area (%) and an image of the number of nuclear fissions (Cells/HPF). It is to be noted that the necrosis area was measured using an image recording software Nikon NIS—Elements D and figures after the decimal point were omitted. On the other hand, the number of nuclear fissions was obtained as an average of those of three fields of view and figures after the decimal point were also omitted. The anti-tumor effect of D-allose, more specifically, necrosis area and the number of nuclear fissions in the renal cell carcinoma xenograft mouse model are shown in Table 10."}, "liver tissue": {"test_system": "liver tissue", "experiment": "Liver tissue histology in renal cell carcinoma xenograft mouse models", "assay_type": "in vivo", "settings": "xenograft mice, intraperitoneal once a day, day 35; diagnosis by a medical specialist in pathology; FIG. 8", "experimental": "as §3, with “On day 35 after the intraperitoneal injection was started, the tumor as well as the liver and kidney were excised from the mice and provided for the experiment performed thereafter.” left out\nThe tissue of the excised tumor, kidney, and liver was fixed with a 4% paraformaldehyde phosphate buffer, embedded with paraffin, and sliced into a 4-μm thick section. The resulting sliced section was stained with hematoxylin and eosin and evaluated by a medical specialist in pathology. The influence of D-allose on the tumor tissue was evaluated by a necrosis area (%) and an image of the number of nuclear fissions (Cells/HPF). It is to be noted that the necrosis area was measured using an image recording software Nikon NIS—Elements D and figures after the decimal point were omitted. […]"}, "[4]": {"settings": "100 mg/kg intraperitoneal once a day"}, "[5]": {"settings": "400 mg/kg intraperitoneal once a day"}},
  "data": [
    {"smiles": "O=C[C@H](O)[C@H](O)[C@H](O)[C@H](O)CO", "note": "[D-allose]", "values": [
      {"measurement": "Uptake into the cells", "setting": "[1]", "result": "found only in one (PC-3) of three human prostate carcinoma cell lines"},
      {"measurement": "D-allose in tumor one hour after intraperitoneal injection", "setting": "Caki-I tumor; HPLC, FIG. 4", "result": "detected"},
      {"measurement": "Time after injection at which D-allose concentration in tumor became the highest", "setting": "Caki-I tumor; sampled 1, 2, 4 hours", "result": "one"},
      {"measurement": "Tumor volume versus Control group", "setting": "[2]; 100 mg/kg intraperitoneal once a day, on and after day 31, Mann-Whitney U test", "result": "significantly smaller than that of the Control group"},
      {"measurement": "Tumor volume versus tumor volume before administration", "setting": "[2]; 400 mg/kg intraperitoneal once a day, on and after day 16", "result": "significantly smaller than the tumor volume before administration"},
      {"measurement": "Tumor volume versus Control group", "setting": "[2]; 400 mg/kg intraperitoneal once a day, on and after day 16, Mann-Whitney U test", "result": "significantly smaller than that of the Control group"},
      {"measurement": "Tumor volume versus Control group", "setting": "[3]", "result": "significantly smaller than the Control group"},
      {"measurement": "Necrosis area", "setting": "ACHN tumor tissue; [4]", "result": 49, "unit": "%"},
      {"measurement": "Nuclear fission", "setting": "ACHN tumor tissue; [4]", "result": 1.2, "unit": "Cells/HPF"},
      {"measurement": "Necrosis area", "setting": "ACHN tumor tissue; [5]", "result": 69, "unit": "%"},
      {"measurement": "Nuclear fission", "setting": "ACHN tumor tissue; [5]", "result": 0.9, "unit": "Cells/HPF"},
      {"measurement": "Influence on the liver tissue", "setting": "liver tissue", "result": "No influence"}
    ]}
  ]
}
